This note sets out measurements from patent US11510914B2, “Agent for inhibiting rise in intraneuronal calcium concentration” (Toray Industries, Inc., priority 2018, dated 2022).

The structures appear in SMILES notation.

The first assay deals with rat spinal dorsal root ganglion (DRG) neurons. Briefly: High potassium-induced rise in intracellular calcium concentration of rat DRG neurons (Cal-520 AM fluorescence imaging). It counts as cell-based. To be noted: Rattus norvegicus, DRG neuron; compound 30 μmol/L; high potassium treatment (KCl 30 mmol/L); average of 60 to 250 cells per group; vehicle group = 0%; read-out: Inhibition rate (%) of a rise in intracellular calcium concentration. The text has this: Example 4 Effect of the cyclic amine derivative (I) or a pharmacologically acceptable salt thereof on high potassium-induced rise in intracellular calcium concentration of rat spinal dorsal root ganglion (DRG) neurons:
The cyclic amine derivative (I) or a pharmacologically acceptable salt thereof was examined for its inhibitory effect on high potassium-induced rise in intracellular calcium concentration of DRG neurons.
The SD rats (4 to 6 weeks old, male; Charles River Laboratories Japan, Inc.) were anesthetized and euthanized by bloodletting from abdominal aorta. After incision of the dorsal part, the spinal column was excised and cooled in ice. The dorsal column was cut off, and the spinal cord was removed from the ventral side of the spinal column. Then, DRGs (L4 to L6) with nerve fibers were excised with tweezers. The excised DRGs were dipped in ice-cold Leibovitz's L-15 medium (Thermo Fisher Scientific), and the nerve fibers were removed under a stereoscopic microscope to separate DRG.
The separated DRGs were made fine slits with ophthalmic scissors, followed by incubation at 37° C. for 20 minutes with Collagenase A (Roche Molecular Systems). After centrifugation at 200×g for 5 minutes, the supernatant was removed, and 0.05% Trypsin-EDTA (Thermo Fisher Scientific) was added, followed by incubation at 37° C. for 5 minutes. DMEM (Thermo Fisher Scientific) containing 1% penicillin-streptomycin (Thermo Fisher Scientific) and 10% fetal bovine serum (Thermo Fisher Scientific) was added thereto. After centrifugation at 200×g for 5 minutes, the supernatant was removed. After the removal of the supernatant, Neurobasal-A Medium (Thermo Fisher Scientific) containing 1% penicillin-streptomycin and 2% B-27 (Thermo Fisher Scientific), which was prepared as a DRG nerve culture medium, was added. Then, the cells were dissociated by micropipetting. The dissociated cells were passed through a 70 μm cell strainer (Greiner) and centrifuged at 200×g for 5 minutes. After the centrifugation, the supernatant was removed, and the cells were suspended by the culture medium. This cell suspension was inoculated to a polylysine-coated 35 mm dish (Matsunami Glass Ind., Ltd.) coated in advance with laminin (Sigma-Aldrich), cultured overnight at 37° C. under 5% CO2, and then used in the measurement of change in intracellular calcium concentration.
Cal-520, AM(registered trademark) (AAT Bioquest) was used as a calcium fluorescent dye. The medium was removed from the cells cultured in the dish, and the cells were washed twice with a perfusate. Then, a Cal-520, AM solution adjusted to 4 μmol/L was added thereto, and the cells were cultured at 37° C. for 1 to 1.5 hours under 5% CO2. The perfusate was an aqueous solution containing NaCl (140 mmol/L), KCl (5 mmol/L), CaCl2)·2H2O (1.2 mmol/L), MgCl2.6H2O (2 mmol/L), D(+)-glucose (14 mmol/L) and HEPES (10 mmol/L), adjusted to pH 7.4. Then, the dish was washed by perfusion at 2 mL/min for 10 minutes.
Change in intracellular calcium concentration was measured by analyzing with analytical software, change in fluorescence intensity of the cells loaded with the calcium fluorescent dye in images taken under a confocal laser microscope system (Nikon Instech Co., Ltd.). The laser wavelength was 488 nm, and the images were acquired at intervals of 57 to 60 sheets per minute.
For the induction of neuronal excitation, a treatment with a high potassium solution (hereinafter, “high potassium treatment”) was performed to induce a rise in intracellular calcium concentration by the depolarization of cell membranes. The high potassium treatment and a treatment with the cyclic amine derivative (I) or a pharmacologically acceptable salt thereof (compounds 1 to 10, compound of Comparative Example 1 and compound of Comparative Example 2) (hereinafter, “compound treatment”) of the cells were performed by the perfusion and replacement of a solution. The perfusion rate was controlled to 2 mL/min using a tube pump. […]
For orientation: Calcium flux is commonly read through the fluorescence of an indicator in the cells.
As to `CN(C)[C@@H]1CCCN(C(=O)CC(O)c2nccn2C)C1` (stereo partly shown) [Compound 5], the inhibition at 30 µM turned out to be 39%.
The same measure, in the same setting: next, `CN1CCN(C2CCN(C(=O)CC(O)c3nccn3C)CC2)CC1` (stereo not shown) [Compound 6, 3-hydroxy-3-(1-methyl-1H-imidazol-2-yl)-1-(4-(4-methylpipzerazin-1-yl)piperidin-1-yl)propan-1-one]: 23.3%.
The same measure, in the same setting: in the case of `CCCn1ccnc1C(O)CC(=O)N1CCC(N(C)C)CC1` (stereo not shown) [Compound 7, 1-(4-(dimethylamino)piperidin-1-yl)-3-(1-propyl-1H-imidazol-2-yl)-3-hydroxypropan-1-one] it was 15.4%; in that of `CN(C)C1CCN(C(=O)CC(O)c2ncc(Cl)n2C)CC1` (stereo not shown) [Compound 9, 3-(5-chloro-1-methyl-1H-imidazol-2-yl)-1-(4-(dimethylamino)piperidin-1-yl)-3-hydroxypropan-1-one], 7.1%; in that of `CC(C)n1ccnc1C(O)CC(=O)N1CCC(N(C)C)CC1` (stereo not shown) [Compound 10, 1-(4-(dimethylamino)piperidin-1-yl)-3-(1-isopropyl-1H-imidazol-2-yl)-3-hydroxypropan-1-one], 5.9%.
For `COCCn1ccnc1C(O)CC(=O)N1CCC(N(C)C)CC1` (stereo not shown) [Compound of Comparative Example 1, 1-(4-(dimethylamino)piperidin-1-yl)-3-(1-(2-methoxyethyl)-1H-imidazol-2-yl)-3-hydroxypropan-1-one, reference compound], the inhibition at 30 µM is -3.3%.
Consider `CN(C)C1CCN(C(=O)CC(O)c2nccn2CCC(F)(F)F)CC1` (stereo not shown) [Compound of Comparative Example 2, 1-(4-(dimethylamino)piperidin-1-yl)-3-(1-(3,3,3-trifluoropropyl)-1H-imidazol-2-yl)-3-hydroxypropan-1-one, reference compound], for which the inhibition at 30 µM was -1.1%.

The same assay, now with this note: Rattus norvegicus, DRG neuron; compound 30 μmol/L; high potassium treatment (KCl 32.5 mmol/L or 30 mmol/L); average of 106 to 262 cells per group; vehicle group = 0%; read-out: Inhibition rate (%) of a rise in intracellular calcium concentration.
In the case of `CCn1ccnc1C(O)CC(=O)N1CCC(N(C)C)CC1` (stereo not shown) [Compound 1, 1-(4-(dimethylamino)piperidin-1-yl)-3-(1-ethyl-1H-imidazol-2-yl)-3-hydroxypropan-1-one], the inhibition at 30 µM stood at 35.5%.
Turning to `CN(C)C1CCN(C(=O)C[C@H](O)c2nccn2C)CC1` [Compound 2, (S)-1-(4-(dimethylamino)piperidin-1-yl)-3-hydroxy-3-(1-methyl-1H-imidazol-2-yl)propan-1-one], the inhibition at 30 µM is 19.3%.
On the same count and under the same terms, in the case of `CN(C)C1CCN(C(=O)CC(O)c2nccn2CC(F)(F)F)CC1` (stereo not shown) [Compound 3, 1-(4-(dimethylamino)piperidin-1-yl)-3-hydroxy-3-(1-(2,2,2-trifluoroethyl)-1H-imidazol-2-yl)propan-1-one] it was 17.8%.
Still for that read-out and setting: in the case of `CN(C)C1CCN(C(=O)CCc2nccn2C)CC1` [Compound 4, 1-(4-(dimethylamino)piperidin-1-yl)-3-(1-methyl-1H-imidazol-2-yl)propan-1-onesulfatemonohydrate] it was 11.9%.

Staying with this assay, now noted: compound 30 μmol/L; KCl 30 mmol/L; compared to vehicle treatment group; Table 5 experiment.
For `COCCn1ccnc1C(O)CC(=O)N1CCC(N(C)C)CC1` (stereo not shown) [Compound of Comparative Example 1, 1-(4-(dimethylamino)piperidin-1-yl)-3-(1-(2-methoxyethyl)-1H-imidazol-2-yl)-3-hydroxypropan-1-one, reference compound], the “Inhibition of high potassium-induced rise in intracellular calcium concentration, in words” value is on record as “not inhibited”.
On the same count and under the same terms, in the case of `CN(C)C1CCN(C(=O)CC(O)c2nccn2CCC(F)(F)F)CC1` (stereo not shown) [Compound of Comparative Example 2, 1-(4-(dimethylamino)piperidin-1-yl)-3-(1-(3,3,3-trifluoropropyl)-1H-imidazol-2-yl)-3-hydroxypropan-1-one, reference compound] it was “not inhibited”.
